Assay results as given in patent US9867825B2, “Pharmaceutical combination comprising binimetinib” (Novartis AG, priority 2012, dated 2018).

Key:
MEL-JUSO xenografts [1] = test: Compound A and Compound B efficacy in MEL-JUSO xenografts (NRAS mutant melanoma); assay type: in vivo; conditions: oral
Excerpt: The oncogenic drivers in a sizable fraction of melanomas are mutant alleles of NRAS that encode one of several variants at position Q61 in the protein. Similar to activated alleles of BRAF, these alleles encode constitutively activated forms of the protein that drive signaling through the MAPK pathway. One consequence of the activation of MAPK signaling is the elevation of cyclin D1 levels that help drive cell cycle progression. […] Based on these observations, the single agent and combination effects of Compound A, and the MEK1/2 inhibitor Compound B, on the in vivo proliferation of MEL-JUSO melanoma model, harboring mutant alleles of NRAS was studied. […] T/C % is defined as the mean change in tumor volume from the time of treatment initiation to the end of study. The % regression is calculated as 100×ΔT/Tinitial if ΔT<0. Complete regression is defined as non-palpable tumor.
All treatments were well-tolerated by the animals with no significant body weight loss observed over the duration of the study (Table 5).

[2] = test system: MEL-JUSO melanoma cells with activated NRAS; test: BrdU uptake assay, MEL-JUSO; assay type: cell-based; conditions: Homo sapiens
Protocol: (§1) Three melanoma cell lines, MEL-JUSO, SK-MEL2 and Hs 944.T, which harbor the Q61X activating mutation of NRAS, were tested with Compound A and Compound B to measure their sensitivity to the inhibitors.

[3] = test system: SK-MEL2 melanoma cells with activated NRAS; test: BrdU uptake assay, SK-MEL2; assay type: cell-based; conditions: Homo sapiens, SK-MEL-2
Protocol: as §1

[4] = test system: Hs 944.T melanoma cells with activated NRAS; test: BrdU uptake assay, Hs 944.T; assay type: cell-based; conditions: Hs 944.T cells
Protocol: as §1

Hs 944.T xenografts = test: Compound A efficacy in Hs 944.T xenografts in nude mice; assay type: in vivo, mouse; conditions: for Change in body weight (%, mean ± SEM) / Change in tumor volume (mm^3, mean ± SEM) / Survival / T/C (%): oral
MEL-JUSO xenografts [5] = test: Compound A efficacy in MEL-JUSO xenografts in SCID-beige mice; assay type: in vivo; conditions: Compound A 150 mg/kg qd, oral

Q: For Cn1cnc2c(F)c(Nc3ccc(Br)cc3F)c(C(=O)NOCCO)cc21 [Compound B, 6-(4-bromo-2-fluorophenylamino)-7-fluoro-3-methyl-3H-benzoimidazole-5-carboxylic acid (2-hydroxyethyoxy)-amide], which “Change in body weight (%, mean ± SEM)” value (MEL-JUSO xenografts [1]; Compound B 3.5 mg/kg bid) is on record?
A: −0.3 ± 2.1%

Q: And the “Change in tumor volume (mm^3, mean ± SEM)” value (“Change … (mm^3, mean ± SEM)” for short) (MEL-JUSO xenografts [1]; Compound B 3.5 mg/kg bid)?
A: 59 ± 24 mm^3

Q: What about the Survival (MEL-JUSO xenografts [1]; Compound B 3.5 mg/kg bid) of the same compound?
A: 6/6

Q: What about the “T/C (%)” value (MEL-JUSO xenografts [1]; Compound B 3.5 mg/kg bid) of the same compound?
A: 12%

Q: And the “Change in body weight (%, mean ± SEM)” value (MEL-JUSO xenografts [1]; Compound B 10 mg/kg bid)?
A: 5.1 ± 1.1%

Q: And the “Change … (mm^3, mean ± SEM)” value (MEL-JUSO xenografts [1]; Compound B 10 mg/kg bid)?
A: −47 ± 11 mm^3

Q: And the “Regression (%)” value (MEL-JUSO xenografts [1]; Compound B 10 mg/kg bid)?
A: 38%

Q: What about the Survival (MEL-JUSO xenografts [1]; Compound B 10 mg/kg bid) of the same compound?
A: 6/6

Q: And the IC50 [2]?
A: 24 nM

Q: What about the IC50 [3] of the same compound?
A: 990 nM

Q: What about the IC50 [4] of the same compound?
A: 554 nM

Q: CN(C)C(=O)c1cc2cnc(Nc3ccc(N4CCNCC4)cn3)nc2n1C1CCCC1 [Compound A, 7-Cyclopentyl-2-(5-piperazin-1-yl-pyridin-2-ylamino)-7H-pyrrolo[2,3-d]pyrimidine-6-carboxylic acid dimethylamide] was tested. Which “Change in body weight (%, mean ± SEM)” value (MEL-JUSO xenografts [1]; Compound A 75 mg/kg qd) did it give?
A: −3.9 ± 1.5%

Q: What about the “Change … (mm^3, mean ± SEM)” value (MEL-JUSO xenografts [1]; Compound A 75 mg/kg qd) of the same compound?
A: 236 ± 32 mm^3

Q: What about the Survival (MEL-JUSO xenografts [1]; Compound A 75 mg/kg qd) of the same compound?
A: 6/6

Q: What about the “T/C (%)” value (MEL-JUSO xenografts [1]; Compound A 75 mg/kg qd) of the same compound?
A: 47%

Q: And the “Change in body weight (%, mean ± SEM)” value (MEL-JUSO xenografts [1]; Compound A 150 mg/kg qd)?
A: −3.9 ± 2.1%

Q: What about the “Change … (mm^3, mean ± SEM)” value (MEL-JUSO xenografts [1]; Compound A 150 mg/kg qd) of the same compound?
A: 157 ± 33 mm^3

Q: What about the Survival (MEL-JUSO xenografts [1]; Compound A 150 mg/kg qd) of the same compound?
A: 6/6

Q: And the “T/C (%)” value (MEL-JUSO xenografts [1]; Compound A 150 mg/kg qd)?
A: 32%

Q: And the “Change in body weight (%, mean ± SEM)” value (MEL-JUSO xenografts [1]; Compound A 250 mg/kg qd)?
A: −2.7 ± 1.6%

Q: What about the “Change … (mm^3, mean ± SEM)” value (MEL-JUSO xenografts [1]; Compound A 250 mg/kg qd) of the same compound?
A: 9 ± 11 mm^3

Q: What about the Survival (MEL-JUSO xenografts [1]; Compound A 250 mg/kg qd) of the same compound?
A: 6/6

Q: What about the “T/C (%)” value (MEL-JUSO xenografts [1]; Compound A 250 mg/kg qd) of the same compound?
A: 2%

Q: And the “Animals classified as TR deaths due to body weight loss criteria” value (Hs 944.T xenografts; Compound A 150 mg/kg qd)?
A: Three animals each from the 150 mg/kg and 250 mg/kg Compound A treatment groups were classified as TR deaths due to body weight loss criteria, and excluded from data analysis.

Q: And the “Change in body weight (%, mean ± SEM)” value (Hs 944.T xenografts; Compound A 150 mg/kg qd)?
A: −12.7 ± 2.1%

Q: And the “Change … (mm^3, mean ± SEM)” value (Hs 944.T xenografts; Compound A 150 mg/kg qd)?
A: 86 ± 17 mm^3

Q: What about the Survival (Hs 944.T xenografts; Compound A 150 mg/kg qd) of the same compound?
A: 5/8

Q: What about the T/C (%) (Hs 944.T xenografts; Compound A 150 mg/kg qd) of the same compound?
A: 36%

Q: What about the “Animals classified as TR deaths due to body weight loss criteria” value (Hs 944.T xenografts; Compound A 250 mg/kg qd) of the same compound?
A: Three animals each from the 150 mg/kg and 250 mg/kg Compound A treatment groups were classified as TR deaths due to body weight loss criteria, and excluded from data analysis.

Q: What about the “Change in body weight (%, mean ± SEM)” value (Hs 944.T xenografts; Compound A 250 mg/kg qd) of the same compound?
A: −19.7 ± 0.6%

Q: And the “Change … (mm^3, mean ± SEM)” value (Hs 944.T xenografts; Compound A 250 mg/kg qd)?
A: 45 ± 25 mm^3

Q: What about the Survival (Hs 944.T xenografts; Compound A 250 mg/kg qd) of the same compound?
A: 5/8

Q: And the T/C (%) (Hs 944.T xenografts; Compound A 250 mg/kg qd)?
A: 19%

Q: What about the “Change in body weight (%, mean ± SEM)” value (MEL-JUSO xenografts [5]) of the same compound?
A: −7.3 ± 1.2%

Q: And the “Change … (mm^3, mean ± SEM)” value (MEL-JUSO xenografts [5])?
A: −32 ± 14 mm^3

Q: And the Survival (MEL-JUSO xenografts [5])?
A: 6/6

Q: And the IC50 [2]?
A: 360 nM

Q: And the IC50 [3]?
A: 750 nM

Q: What about the IC50 [4] of the same compound?
A: 3830 nM
